# Test results as given in patent US12209087B2, “AKT1 modulators” (Alterome Therapeutics, Inc., priority 2022, dated 2025).
# Biological target: T1, full length AKT E17K (Homo sapiens, UniProt P31749, E17K)
# T1 construct: host or cells: HEK-293 (ATCC CRL-1573)
# Experiment: NanoBRET Target Engagement (TE) Assay
# Format: cell-based
# Settings: competitive displacement of tracer in cells, read-out: AKT1 E17K IC50
# From the text: The NanoBRET™ Target Engagement (TE) Intracellular Kinase Assays are based on the NanoBRET™ System (Promega Corporation), an energy transfer technique designed to measure molecular proximity in living cells. The NanoBRET™ TE Assays measure the apparent affinity of test compounds by competitive displacement of the NanoBRET™ tracer compound, which is a cell permeable molecule engineered to be reversibly bound to a NanoLuc® luciferase-kinase fusion expressed in cells. For compound screening, when a test compound binds to the selected kinase, the BRET signal is attenuated. […] All cells were evaluated for viability prior to transfection and optimization of the transfection was done prior to experimentation. […] Following transfection, cells were washed and resuspended in Opti-MEM. NanoBRET assays were performed in white, 384-well plates (Corning) at a density of […]. All example compounds were prepared as concentrated stock solutions in DMSO (Sigma-Aldrich). Compounds are dissolved in DMSO to make 10 mM stock solution. […] A Labcyte ECHO 550 compound dispenser was used to facilitate compound transfer directly to cells. Cells were equilibrated for 2 hr with energy transfer probes and example compound prior to BRET measurements. […] For target engagement analysis, the energy transfer probes were added to the cells at concentrations optimized for the target in question (AKT E17K). Following compound incubation, NanoBRET NanoGlo Substrate (Promega Cat #N157D) and Extracellular Nanoluc Inhibitor (Promega Cat #N235C) was added according to the manufacturer's recommended protocol, and luminescence was measured on Envision Reader (Perkin Elmer) Multimode Luminometer equipped with 450 nm BPfilter (donor) and 600 nm LPfilter (acceptor), using 0.5 s integration time. Milli-BRET units (mBU) are calculated by multiplying the raw BRET values by 1000. Apparent tracer affinity values (EC50) were determined using the sigmoidal dose-response (variable slope).
# Competitive displacement data were then plotted and data were fit to determine the EC50 value for each example compound.
# T1 sequence (P31749 whole entry E17K): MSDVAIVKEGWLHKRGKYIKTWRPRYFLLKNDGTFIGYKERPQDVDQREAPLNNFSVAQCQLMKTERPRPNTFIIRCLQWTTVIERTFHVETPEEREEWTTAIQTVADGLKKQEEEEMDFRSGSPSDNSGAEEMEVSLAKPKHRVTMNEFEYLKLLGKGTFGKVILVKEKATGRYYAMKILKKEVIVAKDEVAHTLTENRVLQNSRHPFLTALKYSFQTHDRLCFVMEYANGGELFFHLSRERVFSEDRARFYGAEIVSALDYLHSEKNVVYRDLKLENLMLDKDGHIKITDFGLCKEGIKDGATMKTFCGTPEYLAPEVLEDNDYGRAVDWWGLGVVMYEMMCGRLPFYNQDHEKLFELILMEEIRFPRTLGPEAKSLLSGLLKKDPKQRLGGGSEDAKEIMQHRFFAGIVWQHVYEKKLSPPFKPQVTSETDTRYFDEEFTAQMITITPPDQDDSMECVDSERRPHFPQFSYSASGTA
row,Compound,IC50
1,"N#Cc1ncc(C(=O)N2CCN(Cc3ccc(-n4c(-c5cccnc5N)nc5ccc(-c6ccccc6)nc54)cc3)CC2)s1 [Example 327, 5-(4-(4-(2-(2-Aminopyridin-3-yl)-5-phenyl-3H-imidazo[4,5-b]pyridin-3-yl)benzyl)piperazine-1-carbonyl)thiazole-2-carbonitrile]",60 to 600 nM
2,"N#Cc1ncnc(N2CCC3(CCN(Cc4ccc(-n5c(-c6cccnc6N)nc6ccc(-c7ccccc7)nc65)cc4)CC3)CC2)n1 [Example 365, 4-(9-(4-(2-(2-Aminopyridin-3-yl)-5-phenyl-3H-imidazo[4,5-b]pyridin-3-yl)benzyl)-3,9-diazaspiro[5.5]undecan-3-yl)-1,3,5-triazine-2-carbonitrile]",15 to 60 nM
3,"[2H]C1(Nc2ccnc(C#N)n2)CCN(Cc2ccc(-n3c(-c4cccnc4N)nc4cc(C)c(C)nc43)cc2)CC1 [Example 452, 4-((1-(4-(2-(2-Aminopyridin-3-yl)-5,6-dimethyl-3H-imidazo[4,5-b]pyridin-3-yl)benzyl)piperidin-4-yl-4-d)amino)pyrimidine-2-carbonitrile]",< 15 nM
4,"[2H]C([2H])([2H])n1ncc(-c2ccc3nc(-c4nccnc4N)n(-c4ccc(CN5CCC(Nc6ccnc(C#N)n6)CC5)cc4)c3n2)n1 [Example 621, 4-((1-(4-(2-(3-Aminopyrazin-2-yl)-5-(2-(methyl-d3)-2H-1,2,3-triazol-4-yl)-3H-imidazo[4,5-b]pyridin-3-yl)benzyl)piperidin-4-yl)amino)pyrimidine-2-carbonitrile]",< 15 nM
5,"N#Cc1nccc(NC2CCN(Cc3ccc(-n4c(-c5nccnc5N)nc5ccc(-c6ccc(OCF)nc6)nc54)cc3)CC2)n1 [Example 639, 4-((1-(4-(2-(3-Aminopyrazin-2-yl)-5-(6-(fluoromethoxy)pyridin-3-yl)-3H-imidazo[4,5-b]pyridin-3-yl)benzyl)piperidin-4-yl)amino)pyrimidine-2-carbonitrile]",< 15 nM
6,"N#Cc1nccc(N2CC3CCC(C2)N3Cc2ccc(-n3c(-c4cccnc4N)nc4ccc(-c5ccc(F)cc5)nc43)cc2)n1 [Example 448, 4-(8-(4-(2-(2-Aminopyridin-3-yl)-5-(4-fluorophenyl)-3H-imidazo[4,5-b]pyridin-3-yl)benzyl)-3,8-diazabicyclo[3.2.1]octan-3-yl)pyrimidine-2-carbonitrile]",15 to 60 nM

# Same assay, conditions: competitive tracer displacement in living cells, read-out: AKT1 E17K IC50
row,Compound,IC50
1,"N#Cc1cc(NC2CCN(Cc3ccc(-n4c(-c5cccnc5N)nc5ccc(-c6ccccc6)nc54)cc3)CC2)ccn1 [Example 85, 4-((1-(4-(2-(2-Aminopyridin-3-yl)-5-phenyl-3H-imidazo[4,5-b]pyridin-3-yl)benzyl)piperidin-4-yl)amino)picolinonitrile]",< 15 nM
2,"N#Cc1cc(C(=O)N2CCN(Cc3ccc(-n4c(-c5cccnc5N)nc5cc(-c6ccccc6)cnc54)cc3)CC2)ccn1 [Example 137, 4-(4-(4-(2-(2-Aminopyridin-3-yl)-6-phenyl-3H-imidazo[4,5-b]pyridin-3-yl)benzyl)piperazine-1-carbonyl)picolinonitrile]",600 to 10000 nM
3,"N#Cc1cncc(N2CCN(Cc3ccc(-n4c(-c5cccnc5N)nc5cccnc54)cc3)CC2)c1 [Example 16, 5-(4-(4-(2-(2-Aminopyridin-3-yl)-3H-imidazo[4,5-b]pyridin-3-yl)benzyl)piperazin-1-yl)nicotinonitrile]",600 to 10000 nM
4,"N#Cc1nc2c(C(=O)NC3CCN(Cc4ccc(-n5c(-c6cccnc6N)nc6ccc(-c7ccccc7)nc65)cc4)CC3)cc(F)cc2s1 [Example 183, N-(1-(4-(2-(2-aminopyridin-3-yl)-5-phenyl-3H-imidazo[4,5-b]pyridin-3-yl)benzyl)piperidin-4-yl)-2-cyano-6-fluorobenzo[d]thiazole-4-carboxamide]",60 to 600 nM
5,"N#Cc1ncccc1C(=O)NC1CCN(Cc2ccc(-n3c(-c4cccnc4N)nc4cccnc43)cc2)CC1 [Example 27, N-(1-(4-(2-(2-Aminopyridin-3-yl)-3H-imidazo[4,5-b]pyridin-3-yl)benzyl)piperidin-4-yl)-2-cyanonicotinamide]",600 to 10000 nM
